Source: patent publication US6781000B1, “Alpha-ketoamide inhibitors of 20S proteasome” (CV Theurapeutics, Inc., priority 1998, dated 2004)

Target: T1, chymotrypsin-like activity of 20S proteasome (Bos taurus, UniProt Q2TBX6+Q32KL2)
T1 construct: was purified to homogeneity from bovine brain according to published methods; from tissue; host or cells: bovine brain
Test: 20S proteasome chymotryptic activity inhibition assay (Suc-Leu-Leu-Val-Tyr-AMC cleavage)
Type: biochemical
Settings: 2 μg 20S proteasome from bovine brain, 50 μM fluorogenic substrate, 15 minutes at 37° C., pH7.5
Procedure: Compounds of this invention prepared according to the method of Example 1 were tested as follows. The 20S catalytic subunit of the proteasome (also known as the multicatalytic proteinase complex) was purified to homogeneity from bovine brain according to published methods (Wilk S. and Orlowski,M 1983, 40 842 J.Neurochem). The chymotryptic activity of the complex is measured by the increase in fluorescence following cleavage of the substrate peptide succinyl-leucine-leucine-valine-tyrosine-7-amino-4methyl coumarin. The standard in vitro assay consists of 2 μg 20S proteasome, 0.1-100 μg/ml proteasome inhibitor in 200 μl 50 mM HEPES, containing 0.1% sodium dodecyl sulphate, pH7.5. The proteolytic reaction is initiated by the addition of 50 μM flourogenic peptide substrate and allowed to progress for 15 minutes at 37° C. The reaction is terminated by the addition of 100 μL of 100 mM acetate buffer, pH4.0. The rate of proteolysis is directly proportional to the amount of liberated aminomethylcoumarin which is measured by fluorescent spectroscopy (EX 370 nm, EM 430 nm).

Row | Structure (SMILES) | IC50 for the inhibition of the chymotrypsin-like activity of 20S proteasome | IC50
1 | CC(C)CC(NC(=O)C(=O)Cc1c[nH]c2ccccc12)C(=O)NC(CC(C)C)C(=O)NC(C)C(=O)O (stereo not shown) [Compound 35] | >10 µg/mL | 
2 | CC(C)CC(NC(=O)CNC(=O)C(=O)Cc1c[nH]c2ccccc12)C(=O)NC(C(=O)O)C(C)C (stereo not shown) [Compound 37] | >10 µg/mL | 
3 | CC(C)CC(NC(=O)C(=O)Cc1c[nH]c2ccccc12)C(=O)NC(CC(C)C)C(=O)NC(Cc1ccc(O)cc1)C(=O)O (stereo not shown) [Compound 31] | >10 µg/mL | 
4 | CC(C)C[C@H](NC(=O)[C@@H](CC(C)C)NC(=O)[C@H](CC(C)C)NC(=O)C(=O)Cc1c[nH]c2ccccc12)C(=O)O [Compound 18] |  | > 18.4 µM
5 | CCC(C)C(NC(=O)C(=O)Cc1c[nH]c2ccccc12)C(=O)NC(CC(C)C)C(=O)NCC(=O)O (stereo not shown) [Compound 62] | >10 µg/mL | 
6 | CCCC(NC(=O)C(=O)Cc1c[nH]c2ccccc12)C(=O)NC(CC(C)C)C(=O)NC(C)C(=O)O (stereo not shown) [Compound 75] |  | > 20.6 µM
7 | CC(C)CC(NC(=O)C(CC(C)C)NC(=O)C(CC(C)C)NC(=O)C(=O)Cc1c[nH]c2ccccc12)C(=O)O (stereo not shown) [Compound 22] | >10 µg/mL | 
8 | CC(C)CC(NC(=O)C(Cc1ccc(-c2ccccc2)cc1)NC(=O)C(=O)Cc1c[nH]c2ccccc12)C(=O)NCC(=O)O (stereo not shown) [Compound 66] | >10 µg/mL | 
9 | CC(C)C[C@@H](NC(=O)[C@@H](NC(=O)C(=O)Cc1c[nH]c2ccccc12)C(C)C)C(=O)NCC(=O)O [Compound 59] |  | > 21.2 µM
10 | CC(C)CC(NC(=O)C(CC(C)C)NC(=O)C(=O)c1ccccc1)C(=O)O (stereo not shown) [Compound 11] | >10 µg/mL | 
11 | CC(C)CC(NC(=O)C(=O)Cc1ccccc1)C(=O)NC(CC(C)C)C(=O)NCC(=O)O (stereo not shown) [Compound 6] | >10 µg/mL | 
12 | CC(C)CC(NC(=O)CNC(=O)C(=O)Cc1c[nH]c2ccccc12)C(=O)NCC(=O)O (stereo not shown) [Compound 52] | >10 µg/mL | 
13 | CCCC(NC(=O)C(=O)Cc1c[nH]c2ccccc12)C(=O)NC(CC(C)C)C(=O)NC(C(=O)O)C(C)C (stereo not shown) [Compound 45] | >10 µg/mL | 
14 | CC(C)CC(NC(=O)C(CC(C)C)NC(=O)C(=O)c1c[nH]c2ccccc12)C(=O)O (stereo not shown) [Compound 10] | >10 µg/mL | 
15 | CC(C)CC(NC(=O)C(CC1CCCCC1)NC(=O)C(=O)Cc1c[nH]c2ccccc12)C(=O)NCC(=O)O (stereo not shown) [Compound 63] | >10 µg/mL | 
16 | CC(C)CC(NC(=O)C(C)NC(=O)C(=O)Cc1c[nH]c2ccccc12)C(=O)NC(C(=O)O)C(C)C (stereo not shown) [Compound 42] | >10 µg/mL | 
17 | CC(C)CC(NC(=O)C(Cc1ccc(O)cc1)NC(=O)C(=O)Cc1c[nH]c2ccccc12)C(=O)NC(C)C(=O)O (stereo not shown) [Compound 76] | >10 µg/mL | 
18 | CC(C)CC(NC(=O)C(Cc1cccnc1)NC(=O)C(=O)Cc1c[nH]c2ccccc12)C(=O)NC(C(=O)O)C(C)C (stereo not shown) [Compound 49] | >10 µg/mL | 
19 | CC(C)CC(NC(=O)C(Cc1ccccc1)NC(=O)C(=O)Cc1c[nH]c2ccccc12)C(=O)NCC(=O)O (stereo not shown) [Compound 55] | >10 µg/mL | 
20 | CC(C)CC(NC(=O)C(Cc1ccc2ccccc2c1)NC(=O)C(=O)Cc1c[nH]c2ccccc12)C(=O)NC(C)C(=O)O (stereo not shown) [Compound 80] | >10 µg/mL | 
21 | CC(C)CC(NC(=O)C(NC(=O)C(=O)Cc1c[nH]c2ccccc12)C(C)C)C(=O)NC(C(=O)O)C(C)C (stereo not shown) [Compound 44] | >10 µg/mL | 
22 | CC(C)CC(NC(=O)CCNC(=O)C(=O)Cc1c[nH]c2ccccc12)C(=O)NC(C(=O)O)C(C)C (stereo not shown) [Compound 38] | >10 µg/mL | 
23 | CC(C)CC(NC(=O)C(CC(C)C)NC(=O)C(CC(C)C)NC(=O)C(=O)Cc1c[nH]c2ccccc12)C(=O)O (stereo not shown) [Compound 28] | >10 µg/mL | 

Now from value to compound:

Row | IC50 for the inhibition of the chymotrypsin-like activity of 20S proteasome | IC50 | Structure (SMILES)
24 | >10 µg/mL |  | CC(C)CC(NC(=O)C(Cc1ccc(O)cc1)NC(=O)C(=O)Cc1c[nH]c2ccccc12)C(=O)NC(Cc1ccccc1)C(=O)O (stereo not shown) [Compound 113]
25 | >10 µg/mL |  | CCCCC(NC(=O)C(=O)Cc1c[nH]c2ccccc12)C(=O)NC(CC(C)C)C(=O)NC(Cc1ccccc1)C(=O)O (stereo not shown) [Compound 106]
26 | >10 µg/mL |  | CCC(C)C(NC(=O)C(=O)Cc1c[nH]c2ccccc12)C(=O)NC(CC(C)C)C(=O)NC(CO)C(=O)O (stereo not shown) [Compound 99]
27 | >10 µg/mL |  | CC(C)CC(NC(=O)C(CC1CCCCC1)NC(=O)C(=O)Cc1c[nH]c2ccccc12)C(=O)NC(CO)C(=O)O (stereo not shown) [Compound 100]
28 | 3 µg/mL |  | CC(C)CC(NC(=O)C(Cc1ccc(-c2ccccc2)cc1)NC(=O)C(=O)Cc1c[nH]c2ccccc12)C(=O)NC(Cc1cccnc1)C(=O)O (stereo not shown) [Compound 192]
29 | 5 µg/mL |  | CCCCC(NC(=O)C(CC(C)C)NC(=O)C(Cc1ccc(-c2ccccc2)cc1)NC(=O)C(=O)Cc1c[nH]c2ccccc12)C(=O)O (stereo not shown) [Compound 174]
30 |  | 4.31 µM | CC(C)CC(NC(=O)C(Cc1ccc(-c2ccccc2)cc1)NC(=O)C(=O)Cc1c[nH]c2ccccc12)C(=O)NC(CCCNC(=N)N)C(=O)O (stereo not shown) [Compound 191]
31 | >10 µg/mL |  | CC(C)CC(NC(=O)C(Cc1ccc2ccccc2c1)NC(=O)C(=O)Cc1c[nH]c2ccccc12)C(=O)NC(C(=O)O)C(C)C (stereo not shown) [Compound 164]
32 | 5 µg/mL |  | CC(C)CC(NC(=O)C(Cc1ccc(-c2ccccc2)cc1)NC(=O)C(=O)Cc1c[nH]c2ccccc12)C(=O)NCCC(=O)O (stereo not shown) [Compound 188]
33 | >10 µg/mL |  | CC(C)CC(NC(=O)C(Cc1ccc(-c2ccccc2)cc1)NC(=O)C(=O)Cc1c[nH]c2ccccc12)C(=O)NC(Cc1ccc(-c2ccccc2)cc1)C(=O)O (stereo not shown) [Compound 187]
34 | 1 µg/mL |  | CC(C)CC(NC(=O)C(Cc1ccc(-c2ccccc2)cc1)NC(=O)C(=O)Cc1c[nH]c2ccccc12)C(=O)NC(CC(=O)O)C(=O)O (stereo not shown) [Compound 176]
35 | >10 µg/mL |  | CC(C)CC(NC(=O)CNC(=O)C(=O)Cc1c[nH]c2ccccc12)C(=O)NCC(=O)O (stereo not shown) [Compound 184]
36 | >10 µg/mL |  | CC(C)CC(NC(=O)C(Cc1ccc(-c2ccccc2)cc1)NC(=O)C(=O)Cc1c[nH]c2ccccc12)C(=O)NCC(=O)O (stereo not shown) [Compound 171]
37 | >10 µg/mL |  | CC(C)CC(NC(=O)C(C)NC(=O)C(=O)Cc1c[nH]c2ccccc12)C(=O)NC(CCC(=O)O)C(=O)O (stereo not shown) [Compound 154]
38 | >10 µg/mL |  | CC(C)CC(NC(=O)C(Cc1ccc2ccccc2c1)NC(=O)C(=O)Cc1c[nH]c2ccccc12)C(=O)NC(CCCNC(=N)N)C(=O)O (stereo not shown) [Compound 205]
39 | >10 µg/mL |  | CC(C)CC(NC(=O)C(CC1CCCCC1)NC(=O)C(=O)Cc1c[nH]c2ccccc12)C(=O)NC(C(=O)O)C(C)C (stereo not shown) [Compound 172]
40 | >10 µg/mL |  | CC(C)CC(NC(=O)C(Cc1ccc(-c2ccccc2)cc1)NC(=O)C(=O)Cc1c[nH]c2ccccc12)C(=O)NC(CCC(=O)O)C(=O)O (stereo not shown) [Compound 163]
41 | >10 µg/mL |  | CC(C)CC(NC(=O)CCNC(=O)C(=O)Cc1c[nH]c2ccccc12)C(=O)NC(CC(=O)O)C(=O)O (stereo not shown) [Compound 135]
42 | >10 µg/mL |  | CCC(C)C(NC(=O)C(=O)Cc1c[nH]c2ccccc12)C(=O)NC(CC(C)C)C(=O)NC(C(=O)O)C(C)C (stereo not shown) [Compound 167]
43 | >10 µg/mL |  | CC(C)CC(NC(=O)C(CC(=O)O)NC(=O)C(=O)Cc1c[nH]c2ccccc12)C(=O)NC(Cc1ccccc1)C(=O)O (stereo not shown) [Compound 110]
44 | >10 µg/mL |  | CCC(NC(=O)C(=O)Cc1c[nH]c2ccccc12)C(=O)NC(CC(C)C)C(=O)NC(CC(=O)O)C(=O)O (stereo not shown) [Compound 140]
45 | >10 µg/mL |  | CC(C)CC(NC(=O)C(Cc1ccc2ccccc2c1)NC(=O)C(=O)Cc1c[nH]c2ccccc12)C(=O)NC(Cc1cccnc1)C(=O)O (stereo not shown) [Compound 206]
46 | >10 µg/mL |  | CC(C)CC(NC(=O)C(Cc1ccc(-c2ccccc2)cc1)NC(=O)C(=O)Cc1c[nH]c2ccccc12)C(=O)NC(Cc1ccc(-c2ccccc2)cc1)C(=O)O (stereo not shown) [Compound 189]
47 |  | > 16.9 µM | CC(C)CC(NC(=O)C(=O)Cc1c[nH]c2ccccc12)C(=O)NC(CC(C)C)C(=O)NC(Cc1ccc(O)cc1)C(=O)O (stereo not shown) [Compound 88]
48 | 5 µg/mL |  | CC(C)CC(NC(=O)C(Cc1ccc(-c2ccccc2)cc1)NC(=O)C(=O)Cc1c[nH]c2ccccc12)C(=O)NC(CC(N)=O)C(=O)O (stereo not shown) [Compound 185]
49 | >10 µg/mL |  | CC(C)CC(NC(=O)C(Cc1ccc(-c2ccccc2)cc1)NC(=O)C(=O)Cc1c[nH]c2ccccc12)C(=O)NC(Cc1cscn1)C(=O)O (stereo not shown) [Compound 198]
